Patent US7629317B2, “Control of growth and repair of gastro-intestinal tissues by gastrokines and inhibitors” (The University of Chicago, priority 2001, dated 2009)
Several values for one entry are separate records, joined by “and”; a condition that tells them apart may be missing. Equal entries are not always repeated. Entries after “also recorded” stand apart in the source; their conditions may differ.

Legend:
MDCK cells = test: Transepithelial electrical resistance (TER) of MDCK cell monolayers; type: cell-based
Procedure: Monolayer cultures of MDCK cells were grown on permeable polycarbonate filters (0.4-μm pore size) (Transell) in DMEM containing FBS (2%) without (control) or with peptide 77-97 (8 μg/ml) for 8 days. TER was measured 24 hr after the cells were plated, and at specified times thereafter using an epithelial volt-ohm meter (EVOM, Millipore). Following each measurement, medium containing FBS without or with peptide was changed (0, 48, and 144 hr), and additional peptide 77-97 (8 μg/ml) was added at 30 and 72 hr. At 72 hr, TER in cultures that received peptide 77-97 was twice as high as in control cultures. Values are means for 3 cultures; variance is <10% of the mean. TER was measured from 3 different areas on the filter.
Panel A: When a stable TER was reached (330 Ω·cm^2) in MDCK cell monolayers the medium was changed to DMEM containing FBS (0.2%), and either peptide 77-97 (8 μg/ml) or EGF (50 ng/ml). After 18 hr, peptide 77-97 or EGF were added to the specified wells. One hour later monochloramine (0.1 mM), like the other agents, was added to the apical and basal compartments of the Transwell. […] Panels B, C: Caco2/bbe (C2) subclone monolayers were grown on collagen-coated polycarbonate filters until a stable TER was reached (225 Ω·cm^2). Spent medium was replaced with fresh medium containing FBS (0.1%) alone or with peptide 77-97 (8 μg/ml). After 18 hr, monochloramine (0.3 mM, B) or indomethacin (0.1 mM, C) was added to both compartments of the Transwell. At time 0, cultures received either vehicle (control), vehicle plus oxidant or indomethacin, or peptide 77-97 and oxidant or indomethacin. TER of injured cultures treated with vehicle decreased by ˜35% at 90 min, whereas peptide-treated cultures declined ˜10%.

[1] = system: mice with Pseudomonas aeruginosa-induced gut-derived sepsis; test: Pseudomonas aeruginosa-induced gut-derived sepsis in mice; type: in vivo, female Balb/c mice; settings: 15 mg/kg i.p for 4 days, s.c. for 1 day; all vehicle animals dead; listed as AMP peptide
Procedure: To determine if AMP peptide could play a cytoprotective role in GDS, a study was carried out in C2 cell monolayers that were exposed to the PA-I lectin. […] Next the effect of AMP peptide was studied in the mouse model of P. aeruginosa-induced-GDS (Laughlin et al., 2000) using female Balb/c mice subjected to 30% hepatectomy, injection of a solution of living P. aeruginosa into the cecum, and food deprivation postoperatively. All 8 of the mice survived surgery.

Streptococcus agalactiae = test: Growth of other bacteria and fungi; type: cell-based
WI-38 fibroblasts = test: Growth of WI-38 fibroblasts (non-GI control); type: cell-based, human; settings: peptide up to 8 μg/ml
Procedure: (§1) To characterize the capacity of gastric and intestinal cells to respond to AMP-18, AGS gastric adenocarcinoma cells, HAE human gastric antrum mucosa primary cultures transformed with SV40 large T antigen, rat diploid small intestinal epithelial cells of the IEC-6 (FIG. 15) and IEC-18 lines, NCI N-87 gastric carcinoma cells, and SK-GT5 gastroesophageal adenocarcinoma cells were studied; human WI-38 fibroblasts and HeLa cells served as non-GI control cell lines. Mitogenesis was assayed by performing cell counts 3 to 4 days after exposing cells to the agent of interest, trypsinizing the culture to prepare single cells, and confirming this while counting them in a hemocytometer.

Aspergillus niger = test: Growth of other bacteria and fungi; type: cell-based
Helicobacter pylori = test: Growth inhibition on a bacterial lawn (filter diffusion); type: cell-based; settings: solution on filter
Procedure: To determine if AMP peptide inhibits growth of H. pylori, a lawn of bacteria was prepared on a culture dish. A small circular filter was placed in the center of the dish, a solution of a test agent was placed on the filter so it diffused onto the lawn, and its effect on bacterial growth around the filter was measured. AMP peptide 77-97 (SEQ ID NO: 12) (Table 1), a scrambled version of this AMP peptide (negative control) (SEQ ID NO: 19), or the antibiotic clarithromycin (positive control) was added to a filter on different cultures. […] In addition, AMP peptide could serve as a therapeutic agent to treat H. pylori infections in the stomach, and thereby prevent the capacity of this organism to cause gastritis, gastric ulcers, and gastric adenocarcinomas.

Candida albicans = test: Growth of other bacteria and fungi; type: cell-based
Acinetobacter baumanii = test: Growth of other bacteria and fungi; type: cell-based
IEC-6 cells = test: Growth of intestinal epithelial IEC-6 cells (cell count); type: cell-based, rat
Procedure: IEC-6 cells were grown in 60-mm dishes. […] Values are means±SE for 3 cultures.
as §1

occludin = test: Occludin in mouse colonic mucosa in vivo (immunoblot of NP-40-insoluble fraction); settings: listed as AMP peptide
Procedure: To look for a systemic effect of treatment with AMP peptide during the development of DSS colitis, body weight was measured. During the first 4 days of DSS administration, body weight changed little in peptide- or vehicle-treated mice. Then DSS was discontinued, the animals were given water to drink (day 0; FIG. 27, right panel), and measurements of weight were continued. […] To better understand how AMP peptide could exert these salutary effects on hematochezia and weight loss in DSS colitis, studies were performed to determine if observations in cultures of C2 cells were also relevant in vivo. Because DSS treatment appeared to injure barrier function in monolayer cultures of C2 cells, assessed as a decrease in TER (FIG. 22) and reduced occludin in the detergent-insoluble fraction (FIG. 36), a question was whether DSS might adversely affect the content of this TJ protein in vivo. Mice (n=10) were given DSS (3%) or water to drink. Four days later animals were killed, the contents of the colon lumen including blood were washed out, and the mucosa was inspected. The colonic epithelial surface of mice given DSS appeared largely intact with no obvious ulcerations or denuded areas. Surface cells of visibly intact mucosa were then collected by scraping with a glass slide. Occludin levels in the NP-40-insoluble fraction were assessed by immunoblotting. […]

Streptococcus pneumoniae = test: Growth of other bacteria and fungi; type: cell-based
Escherichia coli = test: Growth of other bacteria and fungi; type: cell-based

Sequence: LDALVKEKKLQGKGPGGPPPK [97–117, peptide 77-97 of the mature protein, same as 97-117 of the human precursor]
- maturation of TER (MDCK cells; by 24 hr and to a greater extent thereafter): increases TER
- TER relative to control cultures (MDCK cells; peptide 8 μg/ml, at 72 hr): twice as high
- survival one day after P. aeruginosa injection into the cecum [1]: alive and well
- growth of Streptococcus agalactiae (Streptococcus agalactiae): did not alter the growth
- growth stimulation of WI-38 fibroblasts (WI-38 fibroblasts): does not stimulate growth
- growth stimulation of WI-38 fibroblasts (WI-38 fibroblasts; listed as AMP peptide): failure
- growth of Aspergillus niger (Aspergillus niger): did not alter the growth
- growth of H. pylori lawn (Helicobacter pylori; listed as AMP peptide): inhibited growth
- growth of H. pylori lawn (Helicobacter pylori; listed as AMP peptide 77-97): inhibited
- growth of Candida albicans (Candida albicans): did not alter the growth
- growth of Acinetobacter baumanii (Acinetobacter baumanii): did not alter the growth
- growth stimulation of IEC-6 cells (in words) (IEC-6 cells): stimulated growth in a concentration-dependent manner
- concentration at near-maximal growth stimulation (IEC-6 cells; FIG. 15, center panel, listed as AMP peptide): 0.5 μg/ml and 0.23 μM
- potency compared with EGF (IEC-6 cells; peptide 1 μg/ml vs EGF 50 ng/ml): more potent than EGF
- amount of β-catenin in colonic mucosal epithelial cells (occludin): did not alter; also recorded: does not alter
- growth of Streptococcus pneumoniae (Streptococcus pneumoniae): did not alter the growth
- growth of Escherichia coli (Escherichia coli): did not alter the growth
